Structures can show the parent of a compound that is named as a salt.
Assays:
[1] = test system: PDE 4; assay: PDE 4 Enzyme Inhibition (SPA); type: biochemical; conditions: enzyme from human PMNs, cAMP 1 μM; for IC50: 40 minutes at 30° C.
Text: PDE 4 Enzyme Inhibition Study a) Purification of Human Polymorphonucleate Leukocytes The polymorphonucleate leukocytes (PMNs) were isolated from peripheral blood of healthy volunteers according to what described by Boyum A., Scand. J. Immunol., 1976, 50 suppl., 9). Shortly, the isolation of the PMNs was effected by Ficoll-Paque gradient centrifugation followed by sedimentation on dextrane and the erythrocyte contanunation was eliminated by hypotonic lysis. b) PDE 4 Enzyme Purification The human PMNs were re-suspended in TRIS/HCl buffer (10 mM pH 7.8) containing MgCl2 (5 mM), EGTA (4 mM), mercaptoethanol (5 mM), TRITON-X100 (1%), pepstatin A (1 μM), PMSF (100 μM) and leupeptin (1 μM), and homogenized by Polytron. The homogenate was centrifuged at 25,000×g per 30 minutes at 4° C. and the sumatant was used for the PDE 4 enzyme purification by ion exchange chromatography using the FPLC technique according to what described by Schudt C. et al., Naunyn-Schmidberg's Arch. Pharmacol., 1991, 334, 682. The surnatant was seeded on a UNO Q12 column (Bio-Rad) and the enzyme was eluted by sodium acetate gradient from 50 mM to 1M. The fractions containing enzymatic activity were joined, dialysed against water and concentrated. The resulting PDE 4 enzyme was stored at -20° C. in the presence of ethylenglycole (30%) v/v) till the use c) PDE 4 Enzyme Inhibition The enzyme activity was evaluated with an Amersham kit based on the SPA technique (Scintillation Proximity Assay). The enzymatic reaction was effected in a total volume of 100 μl of TRIS/HCl buffer (50 mM, pH7.5), MgCl2, (8.3 mM), EGTA (1.7 mM), cAMP (1 μM) and [^3 H]cAMP (~100.000 dpm). The compounds of the invention were added at the wanted concentrations. The reaction was started by adding the enzyme (15 μg protein/ml) in 40 minutes at 30° C. and stopped by adding 50 μl of suspension of SPA particles. The radioactivity due to the particles was measured in β-emitting counter. The IC50 values were calculated on 9 equidistant concentrations in logarithmic scale using a 4-parameters logistic function by a software.

[2] = test system: TNFα; assay: TNFα Synthesis Inhibition (LPS-induced, human monocytes, ELISA); type: cell-based; conditions: Monocyte, LPS 1 ng/ml, 16 hours at 37° C.
Description: TNFα Inhibition Test a) Human Monocytes Isolation The monocytes were isolated from peripheral blood of healthy volunteers according the procedure of […]. Natl. Cancer Inst., 1964, 32, 507. The monocytes and lymphocytes population was isolated by Ficoll gradient centrifugation, and the cells diluted at a density of 2.5×10^6 cells/ml in RPMI1640 incubation containing 1% inactivated bovine fetal serum, penicillin (100 U/ml) and streptomycin (100 U/ml) were placed in 24-wells plates (1 ml/well) and left to adhere for 1 hour at 37° C. with 5% CO2. At the end of the incubation the lymphocytes not adhering were removed by aspiration and the monocytes adhered to the plate were used in the next step. b) TNFα Synthesis Inhibition The TNFα synthesis from human monocytes was measured according to the method of Barnette M. et al., Biochemical Pharmacology, 1996, 51, 949. The monocytes were incubated for 1 hour with 1 ml of RPMI1640 incubation medium (1% inactivated bovine serum, 100 U/ml penicillin and streptomycin) containing different concentrations of the products according to the present invention or the carrier only for the controls. The TNFα synthesis from monocytes was induced by adding 1 ng/ml of LPS (lipopolysaccharide of E. Coli) and after 16 hours of incubation at 37° C., 5% CO2, the incubation medium was removed, and the surnatant stored at -80° C. until the measurement. The TNFα levels were determined by ELISA test with an Amersham kit. The results are set forth in Table 2 as IC50 measured with the same calculation of example 53.

[3] = target: T1, PDE 5 (Homo sapiens, UniProt O76074); assay: PDE 5 Enzyme Inhibition Test (SPA); type: biochemical; conditions: enzyme from human platelets; cGMP 1 μM; head prints (μM), no concentration figure
T1 construct: from tissue; host or cells: human platelets from platelet rich plasma
Description: (§1) PDE 3 and 5 Enzymes Inhibition Test a) Human Platelet Preparation
(§2) Human platelets were prepared from platelet rich plasma (PRP) obtained from the Hematological Dept. of the "L. Sacco" Hospital of Milan. […]
(§3) b) Purification of PDE 3 and PDE 5 with Fast Protein Liquid Chromatography (FPLC) Before the chromatographic step, platelets were thawed and 50 ml of 20 mM TRIS (pH=6.5) containing 5 mM β-mercapto-ethanol, 2 mM EDTA, 50 mM sodium acetate and 50 μM PMSF (homogenization buffer) were added. The platelet suspension was then homogenized by a Polytron homogenizer (Polytron PT 1200) for 20 seconds. The homogenate was centrifuged at 14,500 rpm for 20 minutes at 4° C., and the supernatant was applied to a UNO Q12 column (Bio-Rad) pre-equilibrated with the PMSF. A flow rate of 4.5 ml/min was used throughout the ion exchange chromatography procedure. The column was washed with PMSF (180 ml) and PDE 3 and PDE 5 were eluted by sodium acetate linear gradient from 0.05M to 1M. The fractions containing enzymatic activity were joined, dialyzed against water and concentrated 10 times by ultrafiltration. The resulting solution was stored at -20° C. in the presence of ethylenglycole (30%) v/v) until use. […]
(§4) c) Assay of Phoshodiesterase Activity
(§5) The enzyme activity was assessed with an Amersham kit based on the SPA technique (Scintillation Proximity Assay). The enzymatic reaction was effected in a total volume of 100 μl of TRIS/HCl buffer (50 mM, pH7.5), MgCl2 (8.3 mM), EGTA (1.7 mM), cAMP (for PDE 3 assay) or cGMP (for PDE 5 assay) (1 μM), [^3 H]cAMP or [^3 H]cGMP (10 μl), and 10 μl of the compounds of the invention. The reaction was started by adding the enzyme (10 μl) incubated for 40 minutes at 30° C. and stopped by adding 50 μl of SPA beads. The radioactivity due to the particles was measured in β-emitting counter. The results are expressed as percent activity versus the control present in each test.

[4] = target: T2, PDE 3 (Homo sapiens, UniProt Q14432); assay: PDE 3 Enzyme Inhibition Test (SPA); type: biochemical; conditions: enzyme from human platelets; cAMP 1 μM; head prints (μM), no concentration figure
T2 construct: the supernatant was applied to a UNO Q12 column (Bio-Rad); from tissue; host or cells: human platelets from platelet rich plasma
Description: as §1, §2, §3, §4, §5

T2 sequence (Q14432 whole entry): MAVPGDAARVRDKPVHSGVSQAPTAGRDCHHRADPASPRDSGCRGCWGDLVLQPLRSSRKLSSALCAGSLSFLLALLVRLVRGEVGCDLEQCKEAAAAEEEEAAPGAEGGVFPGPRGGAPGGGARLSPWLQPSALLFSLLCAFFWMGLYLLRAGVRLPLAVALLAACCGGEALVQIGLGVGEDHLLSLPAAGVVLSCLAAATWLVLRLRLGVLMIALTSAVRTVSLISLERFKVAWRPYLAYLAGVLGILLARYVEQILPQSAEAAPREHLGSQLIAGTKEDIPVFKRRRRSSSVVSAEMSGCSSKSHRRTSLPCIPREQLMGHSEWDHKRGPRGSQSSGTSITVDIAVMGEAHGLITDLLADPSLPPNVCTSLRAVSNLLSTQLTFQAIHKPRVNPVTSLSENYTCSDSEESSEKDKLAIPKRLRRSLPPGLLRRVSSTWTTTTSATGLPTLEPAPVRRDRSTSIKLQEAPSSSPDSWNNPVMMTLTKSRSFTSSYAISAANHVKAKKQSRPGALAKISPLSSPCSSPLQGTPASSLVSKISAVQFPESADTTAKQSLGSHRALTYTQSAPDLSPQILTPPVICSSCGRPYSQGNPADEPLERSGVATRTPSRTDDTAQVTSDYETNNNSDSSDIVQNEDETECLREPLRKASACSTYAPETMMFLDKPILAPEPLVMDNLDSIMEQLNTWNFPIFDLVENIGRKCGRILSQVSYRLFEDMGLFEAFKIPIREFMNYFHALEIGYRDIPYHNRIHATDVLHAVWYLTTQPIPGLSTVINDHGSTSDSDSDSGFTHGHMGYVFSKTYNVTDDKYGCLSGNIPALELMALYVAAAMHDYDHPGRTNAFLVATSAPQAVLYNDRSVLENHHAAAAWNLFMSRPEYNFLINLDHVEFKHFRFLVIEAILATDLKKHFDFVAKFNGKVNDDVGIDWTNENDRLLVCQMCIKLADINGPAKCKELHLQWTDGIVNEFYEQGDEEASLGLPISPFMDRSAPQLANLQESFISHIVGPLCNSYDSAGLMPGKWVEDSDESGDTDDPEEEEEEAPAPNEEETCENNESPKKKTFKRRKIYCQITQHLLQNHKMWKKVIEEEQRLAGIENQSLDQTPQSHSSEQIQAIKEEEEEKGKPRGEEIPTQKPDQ

SMILES | PDE 4 % inhibition ([1]; 10^-5 M) [%] | PDE 4 % inhibition ([1]; 10^-6 M) [%] | IC50 [1] [nM] | IC50 [2] [nM] | PDE 5 % inhibition (μM) [3] [%] | PDE 3 % inhibition (μM) [4] [%]
COc1ccc2c(c1OC1CCCC1)CCN=C2Cc1c(Cl)cncc1Cl [Compound 1, 5-Cyclopentyloxy-1-(3,5-dichloro-2-pridin-4-yl-methyl)-6-methoxy-3,4-dihydro-isoquinoline Hydrochloride] | 96 | 79 | 148 ± 18 | 252 ± 67 | 10 | 0
COc1cc2c(cc1OC1CCCC1)C(Cc1c(Cl)cncc1Cl)=NCC2.Cl [Compound 2, 7-Cyclopentyloxy-1-(3,5-dichloro-pyridin-4-yl-methyl)-6-methoxy-3,4-dihydro-isoquinoline Hydrochloride] | 88 | 54 | 1050 ± 191 |  |  | 
COc1ccc2c(c1OCCCCCc1ccccc1)CCN=C2Cc1c(Cl)cncc1Cl.Cl [Compound 3, 1-(3,5-Dichloro-pyridin-4-yl-methyl)-5-(5-phenylpentyloxy)-6-methoxy-3,4-dihydro-isoquinoline Hydrochloride] |  | 93 | 87.5 ± 17 | 83 ± 16 | 12 | 24
COc1ccc2c(c1OCCCCCc1ccccc1)CCNC2Cc1c(Cl)cncc1Cl.Cl.Cl (centres unmarked) [Compound 4, 1-(3,5-dichloro-pyridin-4-yl-methyl)-5-(5-phenylpentyloxy)-6-methoxy-1,2,3,4-tetrahydro-isoquinoline Dihydrochloride] |  | 54 |  |  |  | 
COC(=O)c1c(Cc2c(Cl)cncc2Cl)c2ccc(OC)c(OC3CCCC3)c2[nH]c1=O [Compound 8, 8-Cyclopentyloxy-4-(3,5-dichloro-pyridin-4-yl-methyl)-7-methoxy-2-oxo-1,2-dihydro-quinolin-carboxylic Acid Methyl Ester] |  | 60 |  |  |  | 

Next, values leading:

PDE 4 % inhibition ([1]; 10^-5 M) [%] | PDE 4 % inhibition ([1]; 10^-6 M) [%] | IC50 [1] [nM] | IC50 [2] [nM] | PDE 5 % inhibition (μM) [3] [%] | PDE 3 % inhibition (μM) [4] [%] | SMILES
 | 73 |  |  |  |  | COc1cc2[nH]cc(-c3c(Cl)cncc3Cl)c(=O)c2cc1OC1CCCC1 [Compound 10, 6-Cyclopentyloxy-3-(3,5-dichloro-pyridin-4-yl)-7-methoxy-1H-quinolin-4-one]
100 | 94 | 101 ± 21 | 78.7 ± 16 | 10 | 12 | COc1cc2c(cc1OC1CCCC1)C(=O)C(c1c(Cl)cncc1Cl)CN2 (centres unmarked) [Compound 12, 6-Cyclopentyloxy-3-(3,5-dichloro-pyridin-4-yl)-7-methoxy-2,3-dihydro-1H-quinolin-4-one]

Reference: patent publication US6297257A, “Benzazine derivatives phosphodiesterase 4 inhibitors” (Zambon Group S.p.A., priority 1997, dated 2001)
